From patent US20200255828A1, “METHODS AND COMPOSITIONS FOR ALTERING FUNCTION AND STRUCTURE OF CHROMATIN LOOPS AND/OR DOMAINS” (THE BROAD INSTITUTE, INC., priority 2017, published 2020)
Entries after “also recorded” stand apart in the source; their conditions may differ.

B1: WT CTCF: wild-type CTCF introduced by transfection into CTCF-AID cells (protein)
chain: MEGDAVEAIVEESETFIKGKERKTYQRRREGGQEEDACHLPQNQTDGGEVVQDVNSSVQMVMMEQLDPTLLQMKTEVMEGTVAPEAEAAVDDTQIITLQVVNMEEQPINIGELQLVQVPVPVTVPVATTSVEELQGAYENEVSKEGLAESEPMICHTLPLPEGFQVVKVGANGEVETLEQGELPPQEDPSWQKDPDYQPPAKKTKKTKKSKLRYTEEGKDVDVSVYDFEEEQQEGLLSEVNAEKVVGNMKPPKPTKIKKKGVKKTFQCELCSYTCPRRSNLDRHMKSHTDERPHKCHLCGRAFRTVTLLRNHLNTHTGTRPHKCPDCDMAFVTSGELVRHRRYKHTHEKPFKCSMCDYASVEVSKLKRHIRSHTGERPFQCSLCSYASRDTYKLKRHMRTHSGEKPYECYICHARFTQSGTMKMHILQKHTENVAKFHCPHCDTVIARKSDLGVHLRKQHSYIEQGKKCRYCDAVFHERYALIQHQKSHKNEKRFKCDQCDYACRQERHMIMHKRTHTGEKPYACSHCDKTFRQKQLLDMHFKRYHDPNFVPAAFVCSKCGKTFTRRNTMARHADNCAGPDGVEGENGGETKKSKRGRKRKMRSKKEDSSDSENAEPDLDDNEDEEEPAVEIEPEPEPQPVTPAPPPAKKRRGRPPGRTNQPKQNQPTAIIQVEDQNTGAIENIIVEVKKEPDAEPAEGEEEEAQPAATDAPNGDLTPEMILSMMDR

Experiments:
HCT-116 cells = experiment: Loop reformation (Hi-C APA) after Rad21 degradation and recovery without transcription, replication or ATP; type: cell-based, human; conditions: Rad21 temporarily degraded and allowed to recover
Source text: Using the degron system, Applicants can directly measure the influence of cellular processes on loop formation (Vian et al, 2018). […] Applicants also tested interchromasomal cohesin-independent links requirement for ATP after cohesin degradation and observed that depletion of ATP strengthens the interactions between superenhancers (FIG. 23).

CTCF-AID cells = experiment: Rescue experiments in the CTCF-AID cell line (Hi-C); type: cell-based, human; conditions: endogenous CTCF degraded by auxin
Source text: The protein CTCF is thought to act as an oriented brake to halt cohesin-mediated loop extrusion in one direction along the genome but not the other, but how this braking activity is mediated mechanistically is unknown. An important question regarding CTCF barrier activity is whether there is a protein domain mediating the ability to halt extrusion or whether CTCF halts cohesin via steric occlusion. As a proof of principle, Applicants introduced either (i) WT CTCF, (ii) CTCF lacking its N terminal domain, or (iii) CTCF lacking its C terminal domain by transfection into CTCF-AID cells. […] Applicants can systematically identify the key residues in the N terminus of CTCF that are necessary for barrier activity by transfecting plasmids expressing mutant CTCF proteins with tiled mutations on the N terminus and assaying via Hi-C after degradation of endogenous CTCF. Similarly, Applicants can develop HCT-116 degron lines for SA1, SA2, and SA1+SA2 double degron (the cohesin ring co-factors that are thought to mediate the interaction between cohesin and CTCF). By depleting endogenous SA protein, introducing SA proteins with tiled mutations across various domains, and assaying looping via Hi-C, Applicants can similarly identify the residues on the cohesin complex required for interaction with CTCF. […]

Molecule	effect on loop formation during Rad21 recovery (HCT-116 cells)	rescue of the looping phenotype (CTCF-AID cells)
CN1CC[C@H](c2c(O)cc(O)c3c(=O)cc(-c4ccccc4Cl)oc23)[C@H](O)C1 [flavopiridol]	does not block loop formation; also recorded: loop reformation occurs without issue	–
CC[C@H]1/C=C/C=C/C[C@@H](C)[C@H](O)[C@@](C)(O)C(=O)[C@@H](C)[C@H](O)[C@@H](C)C(=O)[C@@H](C)[C@H](O)[C@@H](C)/C=C/C(=O)O[C@@H]2[C@H](C)[C@H](CC1)O[C@]1(CC[C@H](C)[C@H](C[C@@H](C)O)O1)[C@H]2C [oligomycin]	does block loop formation; also recorded: loop formation requires ATP	–
Cc1cn([C@H]2C[C@H](O)[C@@H](CO)O2)c(=O)[nH]c1=O [thymidine]	does not block loop formation; also recorded: loop reformation occurs without issue	–
B1	–	rescue the looping phenotype
